Tests used:
Format in all cases: in vivo
[1] = system: barnyardgrass (Echinochloa crus-galli); experiment: Test A preemergence; details: Echinochloa crus-galli, pre-emergence, 240 h, preemergence, 0 to 100 scale where 0 is no effect and 100 is complete control, read-out: Barnyardgrass plant response rating; for pest or weed control at 125 g/ha: 125 g ai/ha, approx. 10 d; for pest or weed control at 500 g/ha: 500 g ai/ha
Summary of the method: (§1)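 Ratings of 0 (no effect) to 100 (complete control) come from visual comparison with untreated controls roughly 10 d after treatment. Test chemicals, formulated in a non-phytotoxic solvent mixture with surfactant, were applied either as a preemergence directed soil spray on seeded soil or postemergence to one- to two-leaf plants 2 to 10 cm tall.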

[2] = system: ragweed (common ragweed, Ambrosia elatior); experiment: Test A preemergence; details: Ambrosia artemisiifolia, pre-emergence, 240 h, preemergence, 0 to 100 scale where 0 is no effect and 100 is complete control, read-out: Ragweed plant response rating; for pest or weed control at 125 g/ha: 125 g ai/ha, approx. 10 d; for pest or weed control at 500 g/ha: 500 g ai/ha
Summary of the method: as §1

[3] = system: pigweed (Amaranthus retroflexus); experiment: Test A preemergence; details: Amaranthus retroflexus, pre-emergence, 240 h, preemergence, 0 to 100 scale where 0 is no effect and 100 is complete control, read-out: Pigweed plant response rating; for pest or weed control at 125 g/ha: 125 g ai/ha, approx. 10 d; for pest or weed control at 500 g/ha: 500 g ai/ha
[4] = system: ryegrass, Italian (Italian ryegrass, Lolium multiflorum); experiment: Test A preemergence; details: Lolium multiflorum, pre-emergence, 240 h, preemergence, 0 to 100 scale where 0 is no effect and 100 is complete control, read-out: Ryegrass, Italian plant response rating; for pest or weed control at 125 g/ha: 125 g ai/ha, approx. 10 d; for pest or weed control at 500 g/ha: 500 g ai/ha
Summary of the method: as §1

Kochia (Kochia scoparia) [5] = experiment: Test A preemergence; details: Bassia scoparia, pre-emergence, 240 h, preemergence, 0 to 100 scale where 0 is no effect and 100 is complete control, read-out: Kochia plant response rating; for pest or weed control at 125 g/ha: 125 g ai/ha, approx. 10 d; for pest or weed control at 500 g/ha: 500 g ai/ha
Summary of the method: as §1

[6] = system: giant foxtail (Setaria faberii); experiment: Test A preemergence; details: Setaria faberi, pre-emergence, 240 h, preemergence, 0 to 100 scale where 0 is no effect and 100 is complete control, read-out: Foxtail, Giant plant response rating; for pest or weed control at 125 g/ha: 125 g ai/ha, approx. 10 d; for pest or weed control at 500 g/ha: 500 g ai/ha
Summary of the method: as §1

[7] = system: barnyardgrass (Echinochloa crus-galli); experiment: Test A postemergence; details: Echinochloa crus-galli, post-emergence, 240 h, postemergence, read-out: Barnyardgrass plant response rating; for pest or weed control at 125 g/ha: 125 g ai/ha, visual injury on 0 to 100 scale (0 no effect, 100 complete control), approx. 10 d; for pest or weed control at 500 g/ha: 500 g ai/ha, 0 to 100 scale, 0 is no effect, 100 is complete control
Summary of the method: as §1

[8] = system: wheat (Triticum aestivum); experiment: Test A postemergence; details: Triticum aestivum, post-emergence, 240 h, postemergence, read-out: Wheat plant response rating; for plant injury at 125 g/ha: 125 g ai/ha, visual injury on 0 to 100 scale (0 no effect, 100 complete control), approx. 10 d; for plant injury at 500 g/ha: 500 g ai/ha, 0 to 100 scale, 0 is no effect, 100 is complete control
Summary of the method: as §1

[9] = system: ragweed (common ragweed, Ambrosia elatior); experiment: Test A postemergence; details: Ambrosia artemisiifolia, post-emergence, 240 h, postemergence, read-out: Ragweed plant response rating; for pest or weed control at 125 g/ha: 125 g ai/ha, visual injury on 0 to 100 scale (0 no effect, 100 complete control), approx. 10 d; for pest or weed control at 500 g/ha: 500 g ai/ha, 0 to 100 scale, 0 is no effect, 100 is complete control
Summary of the method: as §1

[10] = system: blackgrass (Alopecurus myosuroides); experiment: Test A postemergence; details: Alopecurus myosuroides, post-emergence, 240 h, postemergence, read-out: Blackgrass plant response rating; for pest or weed control at 125 g/ha: 125 g ai/ha, visual injury on 0 to 100 scale (0 no effect, 100 complete control), approx. 10 d; for pest or weed control at 500 g/ha: 500 g ai/ha, 0 to 100 scale, 0 is no effect, 100 is complete control
Summary of the method: as §1

[11] = system: pigweed (Amaranthus retroflexus); experiment: Test A postemergence; details: Amaranthus retroflexus, post-emergence, 240 h, postemergence, read-out: Pigweed plant response rating; for pest or weed control at 125 g/ha: 125 g ai/ha, visual injury on 0 to 100 scale (0 no effect, 100 complete control), approx. 10 d; for pest or weed control at 500 g/ha: 500 g ai/ha, 0 to 100 scale, 0 is no effect, 100 is complete control
Summary of the method: as §1

corn (Zea mays) = experiment: Test A postemergence; details: Zea mays, post-emergence, 240 h, postemergence, read-out: Corn plant response rating; for plant injury at 125 g/ha: 125 g ai/ha, visual injury on 0 to 100 scale (0 no effect, 100 complete control), approx. 10 d; for plant injury at 500 g/ha: 500 g ai/ha, 0 to 100 scale, 0 is no effect, 100 is complete control
Summary of the method: as §1

[12] = system: ryegrass, Italian (Italian ryegrass, Lolium multiflorum); experiment: Test A postemergence; details: Lolium multiflorum, post-emergence, 240 h, postemergence, read-out: Ryegrass, Italian plant response rating; for pest or weed control at 125 g/ha: 125 g ai/ha, visual injury on 0 to 100 scale (0 no effect, 100 complete control), approx. 10 d; for pest or weed control at 500 g/ha: 500 g ai/ha, 0 to 100 scale, 0 is no effect, 100 is complete control
Summary of the method: as §1

Kochia (Kochia scoparia) [13] = experiment: Test A postemergence; details: Bassia scoparia, post-emergence, 240 h, postemergence, read-out: Kochia plant response rating; for pest or weed control at 125 g/ha: 125 g ai/ha, visual injury on 0 to 100 scale (0 no effect, 100 complete control), approx. 10 d; for pest or weed control at 500 g/ha: 500 g ai/ha, 0 to 100 scale, 0 is no effect, 100 is complete control
Summary of the method: as §1

[14] = system: Galium (catchweed bedstraw, Galium aparine); experiment: Test A postemergence; details: Galium, post-emergence, 240 h, postemergence, read-out: Galium plant response rating; for pest or weed control at 125 g/ha: 125 g ai/ha, visual injury on 0 to 100 scale (0 no effect, 100 complete control), approx. 10 d; for pest or weed control at 500 g/ha: 500 g ai/ha, 0 to 100 scale, 0 is no effect, 100 is complete control
Summary of the method: as §1

Structure (SMILES)	pest or weed control at 125 g/ha [1]	pest or weed control at 500 g/ha [1]	pest or weed control at 125 g/ha [2]	pest or weed control at 500 g/ha [2]	pest or weed control at 125 g/ha [3]	pest or weed control at 500 g/ha [3]	pest or weed control at 125 g/ha [4]	pest or weed control at 500 g/ha [4]	pest or weed control at 125 g/ha (Kochia (Kochia scoparia) [5])	pest or weed control at 500 g/ha (Kochia (Kochia scoparia) [5])	pest or weed control at 125 g/ha [6]	pest or weed control at 500 g/ha [6]	pest or weed control at 125 g/ha [7]	pest or weed control at 500 g/ha [7]	plant injury at 125 g/ha [8]	plant injury at 500 g/ha [8]	pest or weed control at 125 g/ha [9]	pest or weed control at 500 g/ha [9]	pest or weed control at 125 g/ha [10]	pest or weed control at 500 g/ha [10]	other results
CN1CC(c2cccc(Br)c2)C(C(=O)Nc2ccccc2F)C1=O (stereo not drawn) [Compound 1132]	90%	90%	0%	0%	0%	0%	30%	50%	0%	0%	100%	100%	90%	90%	30%	70%	0%	0%	30%	50%	pest or weed control at 125 g/ha [11]: 0%; pest or weed control at 500 g/ha [11]: 0%; plant injury at 125 g/ha (corn (Zea mays)): 60%; plant injury at 500 g/ha (corn (Zea mays)): 80%; pest or weed control at 125 g/ha [12]: 0%; pest or weed control at 500 g/ha [12]: 30%; pest or weed control at 125 g/ha (Kochia (Kochia scoparia) [13]): 0%; pest or weed control at 500 g/ha (Kochia (Kochia scoparia) [13]): 0%; pest or weed control at 125 g/ha [14]: 0%; pest or weed control at 500 g/ha [14]: 30%
O=C1NC[C@H](c2ccc(F)c(OC(F)(F)C(F)(F)Br)c2)[C@H]1C(=O)Nc1ccccc1F [Compound 1134]	30%	80%	0%	70%	0%	30%	0%	40%	50%	60%	70%	90%	60%	80%	0%	20%	0%	30%	20%	50%	pest or weed control at 125 g/ha [11]: 0%; pest or weed control at 500 g/ha [11]: 20%; plant injury at 125 g/ha (corn (Zea mays)): 20%; plant injury at 500 g/ha (corn (Zea mays)): 20%; pest or weed control at 125 g/ha [12]: 20%; pest or weed control at 500 g/ha [12]: 20%; pest or weed control at 125 g/ha (Kochia (Kochia scoparia) [13]): 0%; pest or weed control at 500 g/ha (Kochia (Kochia scoparia) [13]): 30%; pest or weed control at 125 g/ha [14]: 20%; pest or weed control at 500 g/ha [14]: 70%

— patent publication US12077503B2, “Substituted cyclic amides and their use as herbicides” (FMC CORPORATION, priority 2015, dated 2024)
